Source: patent publication US7183291B2 (Council of Scientific and Industrial Research, priority 1999, dated 2007)
Several values for one entry are separate records, joined by “and”; a condition that tells them apart may be missing. Identical values can stand only once.

Columns and labels:
[1] = tested on: P. cynomolgi B gametocytes; experiment: Gametocytocidal test: infectivity of gametocytes from treated P. cynomolgi infected Rhesus monkeys to An. stephensi mosquitoes; type: in vivo
Procedure: For the gametocytocidal test, batches of 3–4 day old An. Stephensi were allowed to feed on P. cynomolgi infected Rhesus monkeys at appropriate gametocytaemia level. […] […] Mosquitoes were maintained as 26±1° C. under optimal insectary conditions. The infectivity rate and the oocyst counts were recorded on day 8. Mosquitoes were further maintained in the insectary to record the formation of sporozoites and the absence of sporozoites in some of the batches was also ensured by inoculation of mosquito homogenates into native monkeys.

[2] = tested on: developing oocysts of P. cynomolgi; experiment: Effect on developing oocysts in An. stephensi mosquitoes (sporontocidal/oocysticidal action); type: in vivo; details: for % infectivity / No. of mosquitoes infected/dissected / oocyst number gut (Mean ± SD): Day 8 oocyst record
[3] = Methaemoglobin levels in Beagle dogs after 7-day oral treatment; details: dog, in vivo, 1.25 mg/kg
Procedure: Colony bred beagle dogs were maintained in the kennel house of the Institute and fed with a standard diet.
Treatment was administered once daily for seven doses (day 0–6), the day of the first dose being day 0. […] 5 ml. blood was collected from beagle dogs on day 0, 3, 7, 13 and 25 using potassium-oxalate crystals as anticoagulant. All the estimations/tests were conducted on the same day of collection of blood. Methaemoglobin was assayed by the method of Evelyn and Malloy (1938, J. Biol. Chem., 126, 655–662).

normal erythrocytes = experiment: Reduced glutathione (GSH) in normal human erythrocytes after 3 h incubation; type: cell-based
Excerpt: (§1) Drug induced haemolysis is a serious complication in persons deficient in G-6-PD enzyme. The presence of reduced glutathione (GSH) in erythrocytes control the level of oxidative metabolites. Therefore, drugs, which cause lesser oxidation of GSH level are safe. […] G-6-PD deficiency was detected by the fluorescent spot screening test and confirmed by the enzyme assay method. Heparinised blood samples were collected from each individual and after centrifugation, the packed cells were washed three times with cold saline. […] GSH levels were estimated by the method of Bentler et al [Improved Method for the Determination of Blood Glutathione, J. Lab.

[4] = tested on: G-6-PD deficient erythrocytes; experiment: Reduced glutathione (GSH) in G-6-PD deficient human erythrocytes after 3 h incubation; type: cell-based; details: 25 and 50 μg/ml of PQ and equivalent doses, P<0.001
Excerpt: as §1

sporozoites = experiment: Infectivity test: mosquito homogenates inoculated into Rhesus monkeys; type: in vivo, P. cynomolgi; details: 11 batches; 1.87, 2.5, 3.75 and 5.00 mg base/kg; up to 60 days of observations
Procedure: For the gametocytocidal test, batches of 3–4 day old An. Stephensi were allowed to feed on P. cynomolgi infected Rhesus monkeys at appropriate gametocytaemia level. One hour after the control (pretreatment) feeding, compound of formula 1 was administered to the monkeys at 0.63, 1.25, 1.87, 2.5, 3.75 and 5.0 mg/kg in a single dose by oral route. Post-treatment feeding of batches of healthy mosquitoes was done at different times (5–48 hours). Mosquitoes were maintained as 26±1° C. under optimal insectary conditions. The infectivity rate and the oocyst counts were recorded on day 8. Mosquitoes were further maintained in the insectary to record the formation of sporozoites and the absence of sporozoites in some of the batches was also ensured by inoculation of mosquito homogenates into native monkeys.
Infectivity tests were carried out to ensure that there was no sporozoite development in the mosquito batches found negative for oocysts on day 8 following their feeding on drug treated monkeys. Homogenates of 40–50 mosquitoes each from 11 batches fed on gametocyte carrying monkeys treated with compound 1 at 1.87, 2.5, 3.75 and 5.00 mg base/kg were inoculated into native Rhesus monkeys.

[5] = 0.63 mg/kg single dose, feeding +5 hr
[6] = 0.63 mg/kg single dose, feeding +24 hr
[7] = 0.63 mg/kg single dose, feeding +48 hr
[8] = 0.63 mg/kg single dose, feeding −1 hr (pre-treatment)
[9] = 1.25 mg/kg single dose, feeding +5 hr
[10] = 1.25 mg/kg single dose, feeding +24 hr
[11] = 1.25 mg/kg single dose, feeding +48 hr
[12] = 1.25 mg/kg single dose, feeding −1 hr (pre-treatment)
[13] = 1.87 mg/kg single dose, feeding +24 hr
[14] = 1.87 mg/kg single dose, feeding +48 hr
[15] = 1.87 mg/kg single dose, feeding −1 hr (pre-treatment)
[16] = 3.75 mg/kg single dose, feeding +4 hr
[17] = 3.75 mg/kg single dose, feeding +5 hr
[18] = 3.75 mg/kg single dose, feeding +24 hr
[19] = 3.75 mg/kg single dose, feeding −1 hr (pre-treatment)
[20] = age of infection 24 hr, 50 mg/kg
[21] = age of infection 48 hr, 10 mg/kg
[22] = age of infection 48 hr, 50 mg/kg
[23] = age of infection 72 hr, 10 mg/kg
[24] = age of infection 72 hr, 50 mg/kg
[25] = age of infection 96 hr, 50 mg/kg
[26] = age of infection in mosquitoes 24 hr, fed on monkey given 10 mg/kg at −7 hr

COc1cc(NC(C)CCCN/C(C)=C2/CCOC2=O)c2ncccc2c1 (stereo not drawn) [compound 1, N^1-(3-ethylidinotetrahydrofuran-2-one)-N^4-(6-methoxy-8-quinolinyl)-1,4-pentanediamine]
% infectivity [1, 5]: (45.1) % | No. of mosquitoes infected/dissected [1, 5]: 23/51 | Oocyst No. per gut (Mean ± SD) [1, 5]: 10.22 ± 6.8 | % infectivity [1, 6]: (32.61) % | No. of mosquitoes infected/dissected [1, 6]: 15/46 | Oocyst No. per gut (Mean ± SD) [1, 6]: 2.93 ± 2.4 | Parasitaemia/mm^3 Asexual [1, 6]: 30024 /mm^3 | Parasitaemia/mm^3 Gametocytes [1, 6]: 1404 /mm^3 | % infectivity [1, 7]: (0) % | No. of mosquitoes infected/dissected [1, 7]: 0/24 | Oocyst No. per gut (Mean ± SD) [1, 7]: Nil | Parasitaemia/mm^3 Asexual [1, 7]: 23220 /mm^3 | Parasitaemia/mm^3 Gametocytes [1, 7]: 756 /mm^3 | % infectivity [1, 8]: (90.0) % | No. of mosquitoes infected/dissected [1, 8]: 27/30 | Oocyst No. per gut (Mean ± SD) [1, 8]: 86.74 ± 39.2 | Parasitaemia/mm^3 Asexual [1, 8]: 48816 /mm^3 | Parasitaemia/mm^3 Gametocytes [1, 8]: 1728 /mm^3 | oocyst number and percent infectivity compared to control feedings at −1 hr ([1]; 0.63 mg/kg, +5 h and +24 h post-treatment): significant reduction | sporozoites in salivary gland dissections on day 15 ([1]; 0.63 mg/kg, batches fed +5 h and +24 h): presence of sporozoites | oocysts over the midguts ([1]; 0.63 mg/kg, mosquitoes fed at +48 hr): No oocysts were observed | monkeys with marked oocyst decrease at 4–5 hr and no oocysts or sporozoites in batches fed +24 hr and +48 hr ([1]; 1.25 mg/kg): 2/2 | No. of mosquitoes infected/dissected [1, 9]: 12/57 and 15/70 | Oocyst No. per gut (Mean ± SD) [1, 9]: 2.17 ± 1.7 and 2.60 ± 1.7 | % infectivity [1, 10]: (0) % | No. of mosquitoes infected/dissected [1, 10]: 0/36 and 0/30 | Oocyst No. per gut (Mean ± SD) [1, 10]: Nil | % infectivity [1, 11]: (0) % | No. of mosquitoes infected/dissected [1, 11]: 0/24 | Oocyst No. per gut (Mean ± SD) [1, 11]: Nil | Parasitaemia/mm^3 Asexual [1, 11]: 15914 /mm^3 | Parasitaemia/mm^3 Gametocytes [1, 11]: 109 /mm^3 | No. of mosquitoes infected/dissected [1, 12]: 34/38 and 20/47 | Oocyst No. per gut (Mean ± SD) [1, 12]: 22.35 ± 11.8 and 14.40 ± 7.29 | Parasitaemia/mm^3 Gametocytes [1, 12]: 1895 /mm^3 and 1026 /mm^3 | monkeys with marked oocyst decrease at 4–5 hr and no oocysts or sporozoites in batches fed +24 hr and +48 hr ([1]; 1.87 mg/kg): 2/2 | No. of mosquitoes infected/dissected ([1]; 1.87 mg/kg single dose, feeding +4 hr): 6/40 and 18/31 | % infectivity [1, 13]: (0) % | No. of mosquitoes infected/dissected [1, 13]: 0/27 and 0/38 | Oocyst No. per gut (Mean ± SD) [1, 13]: Nil and Nil** | Parasitaemia/mm^3 Gametocytes [1, 13]: 530 /mm^3 and 798 /mm^3 | % infectivity [1, 14]: (0) % | No. of mosquitoes infected/dissected [1, 14]: 0/24 and 0/21 | Oocyst No. per gut (Mean ± SD) [1, 14]: Nil | Parasitaemia/mm^3 Asexual [1, 14]: 7208 /mm^3 and 5130 /mm^3 | Parasitaemia/mm^3 Gametocytes [1, 14]: 212 /mm^3 and 228 /mm^3 | No. of mosquitoes infected/dissected [1, 15]: 25/30 and 23/25 | Parasitaemia/mm^3 Asexual [1, 15]: 33602 /mm^3 and 61560 /mm^3 | Parasitaemia/mm^3 Gametocytes [1, 15]: 1166 /mm^3 and 1026 /mm^3 | monkeys with oocyst development completely blocked in batches fed 4–5 hr and +24 hr post-treatment ([1]; 3.75 mg/kg): 5/5 | % infectivity [1, 16]: (0) % | No. of mosquitoes infected/dissected [1, 16]: 0/25 and 0/21 and 0/41 | Oocyst No. per gut (Mean ± SD) [1, 16]: Nil | % infectivity [1, 17]: (0) % | No. of mosquitoes infected/dissected [1, 17]: 0/30 | Oocyst No. per gut (Mean ± SD) [1, 17]: Nil** | % infectivity [1, 18]: (0) % | No. of mosquitoes infected/dissected [1, 18]: 0/28 and 0/21 and 0/30 and 0/27 | Oocyst No. per gut (Mean ± SD) [1, 18]: Nil and Nil** | No. of mosquitoes infected/dissected [1, 19]: 26/27 and 15/22 and 33/40 and 22/22 | Parasitaemia/mm^3 Asexual [1, 19]: 55728 /mm^3 and 45796 /mm^3 and 68320 /mm^3 and 48336 /mm^3 | monkeys with oocyst development completely blocked in batches fed 4–5 hr and +24 hr post-treatment ([1]; 5.0 mg/kg): 3/3 | time to render mature gametocytes non-infective to mosquitoes ([1]; 3.75 and 5.00 mg/kg): 4 to 5 h | sporozoites in salivary gland dissections, days 14–20 post infective blood meal ([1]; batches with blocked oocyst development (2.5, 3.75, 5.0 mg/kg)): did not show any sporozoites | sporontocidal/oocysticidal action on 24–96 hr old oocysts ([2]; 10–50 mg/kg): absence of sporontocidal/oocysticidal action | % infectivity [2, 20]: 85.19% | No. of mosquitoes infected/dissected [2, 20]: 23/27 | oocyst number gut (Mean ± SD) [2, 20]: 67.00 ± 43.58 | % infectivity [2, 21]: 100.0% | No. of mosquitoes infected/dissected [2, 21]: 20/20 | oocyst number gut (Mean ± SD) [2, 21]: 133.20 ± 96.22 | % infectivity [2, 22]: 78.79% | No. of mosquitoes infected/dissected [2, 22]: 26/33 | oocyst number gut (Mean ± SD) [2, 22]: 46.15 ± 36.70 | % infectivity [2, 23]: 88.00% | No. of mosquitoes infected/dissected [2, 23]: 22/25 | oocyst number gut (Mean ± SD) [2, 23]: 20.36 ± 17.81 | % infectivity [2, 24]: 86.21% | No. of mosquitoes infected/dissected [2, 24]: 25/29 | oocyst number gut (Mean ± SD) [2, 24]: 27.16 ± 20.60 | % infectivity [2, 25]: 69.23% | No. of mosquitoes infected/dissected [2, 25]: 18/26 | oocyst number gut (Mean ± SD) [2, 25]: 40.33 ± 27.38 | % infectivity [2, 26]: 85.00% | No. of mosquitoes infected/dissected [2, 26]: 17/20 | oocyst number gut (Mean ± SD) [2, 26]: 144.47 ± 60.35 | increase of Met-Hb values [3]: 1.7 fold | concentration at which fall in GSH levels reached statistical significance (normal erythrocytes): 31250 ng/mL | GSH (mg %) Mean ± SE (normal erythrocytes; dose 1.25 μg/ml): 44.08 ± 5.80 mg % | GSH (mg %) Mean ± SE (normal erythrocytes; dose 6.25 μg/ml): 42.50 ± 5.85 mg % | decrease in GSH level compared to controls [4]: statistically significant | monkeys developing infection after inoculation of homogenates of 40–50 mosquitoes from oocyst-negative batches (sporozoites): None | melting point: 118 to 120 °C
